# Experimental data taken from patent publication US7094909B2, “HIV protease inhibitors, compositions containing the same, their pharmaceutical uses and materials for their synthesis” (priority 2001, dated 2006).
# Target: T1, HIV-1 protease (Q7S mutant form) (Human immunodeficiency virus type 1 group M subtype B, UniProt P04585, Q495S)
# T1 construct: made in house
# Assay: HIV-1 Protease RET assay
# Format: biochemical
# Settings: Ave. Ki (nM), RET assay, Q7S enzyme, Morrison tight binding fit
# Method: Ki's for the inhibitors of HIV-1 protease were determined using a resonance energy transfer (RET) assay. […] This enzyme is first partially purified as inclusion bodies from cell lysate. It is then solublized in 8M urea and passed through a Q-Sepharose column (Pharmacia) for further purification. To refold this protein, samples containing Q7S is dialyzed into 50 mM sodium phosphate pH 7.0, 50 mM NaCl, 10 mM DTT, and 10% glycerol.
# The commercially available peptide substrate (Molecular Probes Cat. # H-2930) RE(EDANS)SQNYPIVQK(DABCYL)R is used to assess activity and Ki's. This peptide is cleaved quantitatively by HIV-1 Pr at the Tyr-Pro bond. The EDANS fluorophore absorbs at 340 nm and emits at 490 nm. The reaction is carried out in a 96 well plate in a total volume of 100 µL and is run for 12 minutes at 37 C under steady-state conditions with 5 µM substrate and 2 nM active dimer enzyme concentration. The literature value Km for this substrate and enzyme is 103+/−8 µM (See Matayoshi, et al., “Novel Fluorogenic Substrates for Assaying Retroviral Proteases by Resonance Energy Transfer,” Science 247, 954 (1990)). The buffer for this reaction is 0.1M sodium acetate pH 4.8, 1M NaCl, 1 mM EDTA, 5 mM dithiothreitol, 10% dimethyl sulfoxide and 1 mg/ml bovine serum albumin. Inhibition curves are fit using the Morrison tight binding equation.
row,Compound,Ki [nM]
1,"Cc1ccc(CNC(=O)NC(Cc2ccccc2)C(O)C(=O)N2CSC(C)(C)[C@H]2C(=O)NCc2ccccc2C)c(C)c1 (stereo in doubt) [Example B69, 3-{3-[3-(2,4-Dimethyl-benzyl)-ureido]-2-hydroxy-4-phenyl-butyryl}-5,5-dimethyl-thiazolidine-4-carboxylic acid 2-methyl-benzylamide]",7.7
2,"COc1ccccc1CNC(=O)NC(Cc1ccccc1)C(O)C(=O)N1CSC(C)(C)[C@H]1C(=O)NCc1ccccc1C (stereo in doubt) [Example B70, 3-{2-Hydroxy-3-[3-(2-methoxy-benzyl)-ureido]-4-phenyl-butyryl}-5,5-dimethyl-thiazolidine-4-carboxylic acid 2-methyl-benzylamide]",21
3,"Cc1ccccc1CNC(=O)[C@H]1N(C(=O)C(O)C(Cc2ccccc2)NC(=O)NCc2ccc(F)cc2F)CSC1(C)C (stereo in doubt) [Example B71, 3-{3-[3-(2,4-Difluoro-benzyl)-ureido]-2-hydroxy-4-phenyl-butyryl}-5,5-dimethyl-thiazolidine-4-carboxylic acid 2-methyl-benzylamide]",6.4
4,"Cc1ccccc1CNC(=O)[C@H]1N(C(=O)C(O)C(Cc2ccccc2)NC(=O)NCc2ccccc2Br)CSC1(C)C (stereo in doubt) [Example B72, 3-{3-[3-(2-Bromo-benzyl)ureido]-2-hydroxy-4-phenyl-butyryl}-5,5-dimethyl-thiazolidine-4-carboxylic acid 2-methyl-benzylamide]",6.6
5,"Cc1ccccc1CNC(=O)[C@H]1N(C(=O)C(O)C(Cc2ccccc2)NC(=O)NCc2ccc(Br)cc2)CSC1(C)C (stereo in doubt) [Example B73, 3-{3-[3-(4Bromo-benzyl)-ureido]-2-hydroxy-4phenyl-butyryl}-5,5-dimethyl-thiazolidine-4-carboxylic acid 2-methyl-benzylamide]",13
6,"Cc1c(O)cccc1C(=O)N[C@@H](Cc1ccccc1)[C@H](O)C(=O)N1CSC(C)(C)[C@H]1C(=O)NCc1nc2ccccc2[nH]1 [Example A60, (R)-3-[(2S,3S)-2-Hydroxy-3-(3-hydroxy-2-methyl-benzoylamino)-4-phenyl-butyryl]-5,5-dimethyl-thiazolidine-4-carboxylic acid (1H-benzoimidazol-2-ylmethyl)-amide]",66.6
7,"Cc1ccccc1CNC(=O)[C@H]1N(C(=O)[C@@H](O)[C@H](Cc2ccccc2)NC(=O)NC(C)C)CSC1(C)C [Example B17, 3-[(S)-2-Hydroxy-3-(3-isopropyl-ureide)-4-phenyl-butyryl]-5,5-dimethyl-thiazolidine-4carboxylic acid 2-methyl-benzylamide]",4.8
8,"CC1(C)SCN(C(=O)[C@@H](O)[C@H](Cc2ccccc2)NC(=O)NCc2ccccc2Cl)C1C(=O)NCc1ccccc1Cl (stereo partly drawn) [Example B46, 3-{(2S,3S)-3-[3-(2-Chloro-benzyl)-ureido]-2-hydroxy-4-phenyl-butyryl}-5,5-dimethyl-thiazolidine-4-carboxylic acid 2-chloro-benzylamide]",93
9,CC1(C)SCN(C(=O)[C@@H](O)[C@H](Cc2ccccc2)NC(=O)NCc2c(F)cccc2F)[C@@H]1C(=O)NCc1c(F)cccc1F [Example B49],120
10,"C=CCOC(=O)N[C@@H](Cc1ccccc1)[C@H](O)C(=O)N1CSC(C)(C)[C@H]1C(=O)NCc1c(F)cccc1F [Example B50, {(1S,2S)-1-Benzyl-3-[(R)-4-(2,6-difluoro-benzylcarbamoyl)-5,5-dimethyl-thiazolidin-3-yl]-2-hydroxy-3-oxo-propyl}-carbamic acid allyl ester]",7.4
11,"CC1(C)SCN(C(=O)[C@@H](O)[C@H](Cc2ccccc2)NC(=O)NCc2ccccc2C(F)(F)F)[C@@H]1C(=O)NCc1ccccc1C(F)(F)F [Example B52, 3-{(2S,3S)-2-Hydroxy-4-phenyl-3-[3-(2-trifluoromethyl-benzyl)-ureido]-butyryl}-5,5-dimethyl-thiazolidine-4-carboxylic acid 2-trifluoromethyl-benzylamide]",120
12,"Cc1ccccc1CNC(=O)[C@H]1N(C(=O)[C@@H](O)[C@H](Cc2ccccc2)NC(=O)Nc2cccc(F)c2)CSC1(C)C [Example B55, 3-{(2S,3S)-3-[3-(3-Fluoro-phenyl)-ureido]-2-hydroxy-4-phenyl-butyryl}-5,5-dimethyl-thiazolidine-4-carboxylic acid 2-methyl-benzylamide]",679
13,"Cc1ccccc1CNC(=O)[C@H]1N(C(=O)C(O)C(Cc2ccccc2)NS(=O)(=O)c2ccc(C#N)cc2)CSC1(C)C (stereo partly drawn) [Example B58, 3-[(2S,3S)-3-(4-Cyano-benzenesulfonylamino)-2-hydroxy-4-phenyl-butyryl]-5,5-dimethyl-thiazolidine-carboxylic acid 2-methyl-benzylamide]",240
14,"CC1(C)SCN(C(=O)[C@@H](O)[C@H](Cc2ccccc2)NC(=O)NCc2ccccc2)[C@@H]1C(=O)NCc1ccccc1 [Example B61, 3-[(2S,3S)-3-(3-Benzyl-ureido)-2-hydroxy-4-phenyl-butyryl]-5,5-dimethyl-thiazolidine-4-carboxylic acid benzylamide]",16.9
15,"Cc1ccccc1CNC(=O)N[C@@H](Cc1ccccc1)[C@H](O)C(=O)N1CSC(C)(C)[C@H]1C(=O)NCc1ccccc1C [Example B62, 3-{(2S,3S)-2-Hydroxy-3-[3-(2-methyl-benzyl)-ureido]-4-phenyl-butyryl}-5,5-dimethyl-thiazolidine-4-carboxylic acid 2-methyl-benzylamide]",4.2
16,"COc1ccc(CNC(=O)NC(Cc2ccccc2)C(O)C(=O)N2CSC(C)(C)[C@H]2C(=O)NCc2ccc(OC)cc2)cc1 (stereo partly drawn) [Example B63, 33-{(2S,3S)-2-Hydroxy-3-[3-(4-methoxy-benzyl)-ureido]-4-phenyl-butanoyl}-5,5-dimethyl-thiazolidine-4-carboxylic acid 4-methoxy-benzylamide]",7.8
17,"Cc1ccccc1CNC(=O)NC(Cc1ccccc1)C(O)C(=O)N1CSC(C)(C)[C@H]1C(=O)NCc1ccncc1 (stereo partly drawn) [Example B66, 3-{(2S,3S)-2-Hydroxy-3-[3-(2-methyl-benzyl)-ureido]-phenyl-butyryl}-5,5-dimethyl-thiazolidine-4-carboxylic acid (pyridin-4-ylmethyl)-amide]",5.2
18,"COc1ccc(CNC(=O)N[C@@H](Cc2ccccc2)[C@H](O)C(=O)N2CSC(C)(C)[C@H]2C(=O)NCc2ccccc2C)cc1OC [Example B74, (R)-3-{(2S,3S)-3-[3-(3,4Dimethoxy-benzyl)ureido]-2-hydroxy-4-phenyl-butyryl}-5,5-dimethyl-thiazolidine-4-carboxylic acid 2-methyl-benzylamide]",39

# Same assay, conditions: Ki, unit inferred
row,Compound,Ki [nM]
1,Cc1ccccc1CNC(=O)[C@@H]1N(C(=O)[C@@H](O)[C@H](Cc2ccccc2)NC(=O)CSc2c(C)cccc2C)CSC1(C)C,422
2,Cc1ccccc1CNC(=O)[C@H]1N(C(=O)[C@@H](O)[C@H](Cc2ccccc2)NC(=O)OC2CCC3CCCC3C2)CSC1(C)C (some centres unmarked),148
3,Cc1ccccc1CNC(=O)[C@H]1N(C(=O)[C@@H](O)[C@H](Cc2ccccc2)NC(=O)C2CCCNC2)CSC1(C)C (some centres unmarked),11.5
4,Cc1ccccc1CNC(=O)[C@H]1N(C(=O)[C@@H](O)[C@H](Cc2ccccc2)NC(=O)C2CCCN(C(=O)OC(C)(C)C)C2)CSC1(C)C (some centres unmarked),117
5,Cc1ccccc1CNC(=O)[C@@H]1CSCN1C(=O)[C@@H](O)[C@H](Cc1ccccc1)NC(=O)CCc1c(C)cccc1C,20
6,Cc1ccccc1CNC(=O)[C@@H]1CC(F)(F)CN1C(=O)[C@@H](O)[C@H](Cc1ccccc1)NC(=O)c1cccn1C,59
7,Cc1c(O)cccc1C(=O)N[C@@H](Cc1ccccc1)[C@H](O)C(=O)N1CSC(C)(C)[C@H]1C(=O)NC1(C#N)CC1,6.2
8,Cc1cccc(C)c1CNC(=O)[C@@H]1C[C@@H]2CCCC[C@@H]2CC1C(=O)[C@@H](O)[C@H](Cc1ccccc1)NC(=O)c1cccc(O)c1C (some centres unmarked),83
9,Cc1ccccc1CNC(=O)[C@@H]1N(C(=O)[C@@H](O)[C@H](Cc2ccccc2)NC(=O)c2cccc(O)c2C)CSC12CCCCC2,11
10,CCCNC(=O)[C@@H]1CC(F)(F)CN1C(=O)[C@@H](O)[C@H](Cc1ccccc1)NC(=O)O[C@H]1CCOC1,42
11,CCCNC(=O)[C@@H]1CC(F)(F)CN1C(=O)[C@@H](O)[C@H](Cc1ccccc1)NC(=O)c1ccc(C)c(O)c1C,108
12,CCNC(=O)C1c2ccccc2CN1C(=O)[C@@H](O)[C@H](Cc1ccccc1)NC(=O)c1c(C)noc1C (some centres unmarked),84
13,Cc1ccccc1CNC(=O)[C@H]1N(C(=O)[C@@H](O)[C@H](Cc2ccccc2)NC(=O)CCN)CSC1(C)C,156
14,Cc1ccccc1CNC(=O)[C@H]1N(C(=O)[C@@H](O)[C@H](Cc2ccccc2)NC(=O)CCCN)CSC1(C)C,51
15,Cc1ccccc1CNC(=O)[C@H]1N(C(=O)[C@@H](O)[C@H](Cc2ccccc2)NC(=O)CN)CSC1(C)C,110
16,Cc1ccccc1CNC(=O)[C@H]1N(C(=O)[C@@H](O)[C@H](Cc2ccccc2)NC(=O)C(C)(C)CN)CSC1(C)C,18.7
17,Cc1ccccc1CNC(=O)[C@H]1N(C(=O)[C@@H](O)[C@H](Cc2ccccc2)NC(=O)C(C)CN)CSC1(C)C (some centres unmarked),158
